Test results from patent US20180250314A1, “Skin Treatment System” (priority 2017, published 2018).

Tested on: keratosis pilaris
Test: In-vivo study, patients with keratosis pilaris
Conditions: topical use; arms, buttocks, thighs, and cheeks
From the text: During use of the skin treatment formulations, the glycolic acid is configured to react with the top layer of skin, i.e., the stratum corneum, by breaking it down while dissolving sebum and other substances that bind dead tissue together. The dead skin cells produced when exposed to the glycolic acid may then be sloughed off with gentle exfoliation, which clears blocked pores and opens comedones to reveal smoother, brighter, younger-looking skin.

Structure (SMILES): O=C(O)CO [glycolic acid]
- skin appearance in keratosis pilaris patients: clearer and smoother skin
